Literature values in patent publication US7638270B2, “Nucleic acids and corresponding proteins entitled 254P1D6B useful in treatment and detection of cancer” (Agensys, Inc., priority 2003, dated 2009).

Test system: HLA-DR alleles

xKXVAAWTLKAAx: pan-DR-binding epitope peptide (SEQ ID NO: 16); X is cyclohexylalanine, phenylalanine or tyrosine
binding to HLA-DR alleles: bind to most HLA-DR alleles
stimulation of the response of T helper lymphocytes (regardless of HLA type): stimulate the response of T helper lymphocytes from most individuals
